This passage reports IC50 results from US20090018166A1, “New Pyridine Analogues X 161” (ASTRAZENECA AB, priority 2007, published 2009).

For this test, the target named is T1, P2Y12 receptor (Homo sapiens, UniProt Q9H244).
T1 construct: expressed in transfected cells; host or cells: CHO cells (membranes)
T1 sequence (Q9H244 whole entry): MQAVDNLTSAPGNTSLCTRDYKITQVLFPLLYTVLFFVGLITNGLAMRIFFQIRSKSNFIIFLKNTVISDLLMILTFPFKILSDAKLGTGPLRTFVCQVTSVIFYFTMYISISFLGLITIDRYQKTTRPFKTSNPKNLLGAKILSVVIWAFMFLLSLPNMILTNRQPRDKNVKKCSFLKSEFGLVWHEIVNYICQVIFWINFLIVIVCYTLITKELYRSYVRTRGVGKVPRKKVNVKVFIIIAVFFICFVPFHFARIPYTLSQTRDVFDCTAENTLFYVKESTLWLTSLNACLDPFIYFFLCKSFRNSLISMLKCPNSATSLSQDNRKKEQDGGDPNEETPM
The experiment in a line: Functional inhibition of 2-Me-S-ADP induced P2Y12 signalling (35S-GTPγS binding, membranes from P2Y12 transfected CHO-cells). The class given is biochemical. To be noted: 35S-GTPγS, EC80 of 2-methyl-thio-adenosine diphosphate, P2Y12 CHO membranes; value given in each example; read-out: GTPγS(IC50 μM). Here is the method:
Functional inhibition of- the P2Y12 receptor can be measured by in vitro assays using cell membranes from P2Y12 transfected CHO-cells, the methodology is indicated below.
Functional inhibition of 2-Me-S-ADP induced P2Y12 signalling: 5 μg of membranes were diluted in 200 μl of 200 mM NaCl, 1 mM MgCl2, 50 mM HEPES (pH 7.4), 0.01% BSA, 30 μg/ml saponin and 10 μM GDP. To this was added an EC80 concentration of agonist (2-methyl-thio-adenosine diphosphate), the required concentration of test compound and 0.1 μCi ^35S-GTPγS. The reaction was allowed to proceed at 30° C. for 45 min. Samples were then transferred on to GF/B filters using a cell harvester and washed with wash buffer (50 mM Tris (pH 7.4), 5 mM MgCl2, 50 mM NaCl). Filters were then covered with scintilant and counted for the amount of ^35S-GTPγS retained by the filter. Maximum activity was that determined in the presence of the agonist and minimum activity in the absence of the agonist following subtraction of the value determined for non-specific activity. The effect of compounds at various concentrations was plotted according to the equation
y=A+((B−A)/(1+((C/x)̂D)))
and IC50 estimated where A is the bottom plateau of the curve i.e. the final minimum y value B is the top of the plateau of the curve i.e. the final maximum y value C is the x value at the middle of the curve. This represents the log EC50 value when A+B=100 D is the slope factor. x is the original known x values. Y is the original known y values.
As for `C=CCCC(=O)c1cc(Cl)c(N2CCC(C(=O)NS(=O)(=O)Cc3ccccc3)CC2)nc1CN1CCCC1=O` [Example 51, N-(benzylsulfonyl)-1-{3-chloro-6-[(2-oxopyrrolidin-1-yl)methyl]-5-pent-4-enoylpyridin-2-yl}piperidine-4-carboxamide], the IC50 came out at 0.069 µM.
To `CCCC(=O)c1cc(Cl)c(N2CCC(C(=O)NS(=O)(=O)CC3CCCCC3)CC2)nc1CN1CCCC1=O` [Example 52, 1-{5-butyryl-3-chloro-6-[(2-oxopyrrolidin-1-yl)methyl]pyridin-2-yl}-N-[(cyclohexylmethyl)sulfonyl]piperidine-4-carboxamide] belongs 0.231 µM; to `CCCC(=O)c1cc(Cl)c(N2CCC(C(=O)NS(=O)(=O)Cc3ccc(F)cc3F)CC2)nc1CN1CCCC1=O` [Example 53, 1-{5-butyryl-3-chloro-6-[(2-oxopyrrolidin-1-yl)methyl]pyridin-2-yl}-N-[(2,4-difluorobenzyl)sulfonyl]piperidine-4-carboxamide], 0.032 µM.
The value for `CCCCC(=O)c1cc(Cl)c(N2CCC(C(=O)NS(=O)(=O)CC3CCCC3)CC2)nc1CN1CCCC1=O` [Example 54, 1-{3-chloro-6-[(2-oxopyrrolidin-1-yl)methyl]-5-pentanoylpyridin-2-yl}-N-[(cyclopentylmethyl)sulfonyl]piperidine-4-carboxamide] was 0.938 µM; that for `CCCCC(=O)c1cc(Cl)c(N2CCC(C(=O)NS(=O)(=O)Cc3ccc(F)cc3F)CC2)nc1CN1CCCC1=O` [Example 55, 1-{3-chloro-6-[(2-oxopyrrolidin-1-yl)methyl]-5-pentanoylpyridin-2-yl}-N-[(2,4-difluorobenzyl)sulfonyl]piperidine-4-carboxamide] was 0.226 µM.
To `CCCCC(=O)c1cc(Cl)c(N2CCC(C(=O)NS(=O)(=O)N(C)c3ccc(F)cc3)CC2)nc1CN1CCCC1=O` [Example 56, 1-{3-chloro-6-[(2-oxopyrrolidin-1-yl)methyl]-5-pentanoylpyridin-2-yl}-N-{[(4-fluorophenyl)(methyl)amino]sulfonyl}piperidine-4-carboxamide] belongs 0.247 µM; to `CCCCC(=O)c1cc(Cl)c(N2CCC(C(=O)NS(=O)(=O)Cc3ccccc3)CC2)nc1CN1CCCC1=O` [Example 57, N-(benzylsulfonyl)-1-{3-chloro-6-[(2-oxopyrrolidin-1-yl)methyl]-5-pentanoylpyridin-2-yl}piperidine-4-carboxamide], 0.079 µM; to `N#Cc1cc(C(=O)CCC(F)(F)F)c(CN2CCCC2=O)nc1N1CCC(C(=O)NS(=O)(=O)Cc2ccccc2)CC1` [Example 58, N-(benzylsulfonyl)-1-{3-cyano-6-[(2-oxopyrrolidin-1-yl)methyl]-5-(4,4,4-trifluorobutanoyl)pyridin-2-yl}piperidine-4-carboxamide], 0.084 µM.
Regarding `CCCCC(=O)c1cc(Cl)c(N2CCC(C(=O)NS(=O)(=O)Cc3ccc(Cl)cc3)CC2)nc1CN1CCCC1=O` [Example 59, N-[(4-chlorobenzyl)sulfonyl]-1-{3-chloro-6-[(2-oxopyrrolidin-1-yl)methyl]-5-pentanoylpyridin-2-yl}piperidine-4-carboxamide], the IC50 turned out to be 0.132 µM.
Take `CCCCC(=O)c1cc(Cl)c(N2CCC(C(=O)NS(=O)(=O)C(C)c3ccccc3)CC2)nc1CN1CCCC1=O` (centres unmarked) [Example 60, 1-{3-chloro-6-[(2-oxopyrrolidin-1-yl)methyl]-5-pentanoylpyridin-2-yl}-N-[(1-phenylethyl)sulfonyl]piperidine-4-carboxamide]: the IC50 stood at 0.268 µM.
The value for `CCCCC(=O)c1cc(C#N)c(N2CCC(C(=O)NS(=O)(=O)C(C)c3ccccc3)CC2)nc1CN1CCCC1=O` (centres unmarked) [Example 61, 1-{3-cyano-6-[(2-oxopyrrolidin-1-yl)methyl]-5-pentanoylpyridin-2-yl}-N-[(1-phenylethyl)sulfonyl]piperidine-4-carboxamide] was 0.033 µM.

In general, IC50 refers to the midpoint of a concentration-inhibition curve.
